How the values were obtained:
FZD4 and GPR101 genes = assay: Real-time PCR of EGFR transactivation-related genes after RON inhibition; assay type: cell-based, human; details: KM12C, RON siRNA 48 hours; FIG. 1E
Experimental: In order to perform the RT-PCR, Colo320HSR colon cancer cell line in which the RON was non-expressed was transfected with construct expressing the RONΔ160 as the RON active type form for 48 hours and KM12C colon cancer cell line in which the RON was activated was transfected with the RON siRNA for 48 hours. The RNA was extracted by using trizol (Cat.#15596-026, Life Technologies™), respectively. The extracted RNA was synthesized to cDNA by using a RT-PCR Kit (AccuPower RT PreMix, Bioneer). The difference in expression of the corresponding gene was verified by PCR (AccuPower PCRPreMix, Bioneer) by using the synthesized cDNA and a gene-specific primer and quantified by using a real-time PCR (LightCycler 480 SYBR Green, Roche).
The inventors analyzed the expression of the genes Adam11, Adam32, FZD4, GPER, and GPR101 associated with the EGFR transactivation with real-time PCR after artificially suppressing the RON activity by using an siRNA technique in the KM12C colon cancer cell line in which the RON was activated, in order to analyze the change aspect of the expression of the EGFR transactivation-related genes according to the RON inhibition.

EGFR = EGFR phosphorylation by western blot after RON inhibition by siRNA; assay type: cell-based, human
Experimental: In order to perform the western blot, a protein separated from each cell was separated through SDS-PAGE and transferred to polyscreen membranes (New England Nuclear, Boston, Mass., USA), reacted for 12 hours at 4° C. by using various antibodies (anti-phospho RON (MyBioSource, San Diego, Calif., USA), anti-phospho Tyrosine, anti-EGFR, anti-phospho EGFR (Cell signaling Technology, Beverly, Mass., USA), anti-RON, and anti-r-tubulin (Santa Cruz Biotechnology), and then washed with a 1×TBS-T buffer solution for 10 minutes three times. A suitable anti-rabbit-HRP or anti-mouse-HRP secondary antibody reacted for 2 hours at room temperature and was washed with the 1×TB S-T buffer solution for 10 minutes three times to verify the expression of the protein by using an ECL solution (Amersham, Buckinghamshire, UK).
The inventors verified the phosphorylation induction of the EGFR by performing the western blot, after artificially suppressing the RON by using a siRNA technique in the KM12C and HT29 colon cancer cell lines in which the RON was expressed and activated, in order to verify the change in activity of the EGFR protein by the activation of the RON protein. […]

Substance: 5′-ACUUUGUAGAGGAGUUUGAUU-3′ (listed as RNA, chemistry not given here) [RON siRNA]
- FZD4 gene expression (FZD4 and GPR101 genes): significantly reduced
- GPR101 gene expression (FZD4 and GPR101 genes): significantly reduced
- activity of the EGFR (phosphorylation) (EGFR; KM12C and HT29 colon cancer cell lines, FIG. 2B): decreased
- phosphorylation of the EGFR induced by the EGF (EGFR; KM12C, by EGF ligand treating time, FIG. 2C): decreased

Reference: US11008622B2, “Biomarker for predicting sensitivity to EGFR-targeting agent, and use thereof” (THE ASAN FOUNDATION, priority 2014, dated 2021)
